Common to all, as to type: cell-based
For one experiment, the system named is 16-member SynCom. The experiment in a line: Targeted interventions in the SynCom (prebiotic metabolite or probiotic strain addition), metagenomics relative abundance. The conditions noted are these: 7 days; for change in relative abundance in the community upon metabolite addition: SynCom in 0.1×R2A + metabolite, three concentrations; for relative abundance of primary targets (high TE for import protein) after metabolite addition / relative abundance of secondary targets (guild competitors) after metabolite addition: SynCom in 0.1×R2A + substrate vs 0.1×R2A control. Here is the method: Optical density readings at 600 nm (OD600), from isolates pre-cultures were taken with a Molecular Devices SpectraMax M3 Multi-Mode Microplate Reader (VWR, cat #89429-536). Precultures were diluted to a starting OD600 of 0.02 in 5 mL 0.1×R2A. The SynCom was assembled in large volumes to minimize pipetting error and maximize reproducibility. Briefly, 1 mL of each normalized culture (OD600=0.02) was diluted in a final volume of 250 mL 0.1×R2A and spread into 20 mL aliquots in Falcon tubes. Falcon tubes containing the SynCom inoculum were then incubated at 30° C. for 7 days, in aerobic conditions, in four biological replicates. After 7 days of culture, the SynCom samples were harvested by centrifugation and pellets were immediately treated for multi-omics analysis as detailed below (DNA-, RNA- and metaRibo-Seq).
For targeted modifications experiments carried out in the SynCom, the SynCom was assembled and cultured as described above, with modifications. Specific isolates were omitted from the SynCom assembly for the dropout experiments, as described in FIGS. 2d and 2e. Alternatively, concentrated stocks of either Burkholderia, Chitinophaga, Mucilaginibacter or Rhizobium were added as probiotics to the SynCom. Metabolites from concentrated, filter-sterilized stocks of the desired substrates were added to the medium for the prebiotics experiments. Modified SynCom were then incubated at 30° C. for 7 days, in aerobic conditions, in two biological replicates. After 7 days of culture, the modified SynCom samples were harvested by centrifugation and pellets were stored at −80° C. prior to metagenomics analysis.
DNA and RNA from SynCom samples were extracted from leftover lysates from metaRibo-Seq sample preparation, stored in Trizol at −80 C. DNA from soil samples was extracted using ZymoBIOMICS DNA miniprep kit (Zymo). DNA-Seq libraries were prepared using Nextera XT library preparation kit with 700 pg DNA input per sample and 6:30 min tagmentation at 55° C. and barcoded using Nextera XT indexes (Illumina). RNA was extracted using RNeasy mini kit (Qiagen), and rRNA was removed using QIAseq FastSelect-5S/16S/23S kit (Qiagen). RNA-Seq libraries were prepared using KAPA RNA HyperPrep kit (Roche) and barcoded using TruSeq indexes (Illumina). Amplification was followed in real time using SYBR-Green and stopped when reaching a plateau.
Adapter sequences were removed from multi-omics sequencing data using TrimGalore (Cutadapt version 1.18), and quality controlled using FastQC version 0.11.9 (Andrews et al. 2010). Trimmed reads were aligned to a custom SynCom database using bowtie2 version 2.3.2. Gene count tables were obtained using Woltka version 0.1.1 (Zhu et al. 2022). Multi-omics gene counts were normalized to reads per kilobase per million (RPKM).

In the next experiment the test system is Burkholderia. The experiment in a line: Pre-/probiotic intervention in natural soil, shotgun metagenomics relative abundance. To be noted: for Burkholderia's relative abundance: soil+SynCom probiotic+prebiotic versus soil+SynCom probiotic (FIG. 6).
In another experiment the test system is Rhizobium and Variovorax. The description is as above. To be noted: for relative abundance of Burkholderia's competitors Rhizobium and Variovorax: soil+SynCom probiotic+prebiotic versus soil+SynCom probiotic (FIG. 6). Here is the method:
(§1) A soil associated with switchgrass lowland reference genome clone (Missaoui, Boerma, and Bouton 2005) that was sampled from a field located in Texas, USA (28.3325, −98.1175) was used. Fifty gram (50 g) of soil was added to 250 mL of 0.1×R2A culture medium or 0.1×R2A+SynCom inoculum prepared as described above, and this volume was spread in 14 mL culture tubes (5 mL in each tube). 50-500 μL of concentrated, filter-sterilized stocks of the desired substrates and/or 20 μL of the SynCom isolate pure cultures diluted at an OD600 of 0.02 (i.e. approximately 8.10^5 CFU/mL) were then added. Soil samples were then grown at 30° C. for 7 days, in aerobic conditions, in two biological replicates (three replicates for reference soil sample). After 7 days of culture, the soil samples were harvested by centrifugation and pellets were stored at −80° C. prior to metagenomics analysis.
(§2) Soil samples from a switchgrass crop similar to the site from which the SynCom strains were originally isolated, were incubated in 33 different conditions: 0.1×R2A alone (soil control), with and without metabolite additions (prebiotic), and with and without individual SynCom members (probiotic, 8.10^5 CFU/mL), or the whole 16-member SynCom (probiotic consortium, 8.10^5 CFU/mL of each member) (see methods and FIG. 6). Changes in microbial community composition were analyzed by shotgun metagenomics.

Another experiment concerns Chitinophaga. The description is as above. To be noted: natural soil in 0.1×R2A, 7 days. Here is the method: as §1, §2
The test system of another experiment is Mucilaginibacter. Described as above. To be noted: natural soil in 0.1×R2A, 7 days. Here is the method:
as §1, §2

In another experiment the test system is Paenibacillus. Described as above. The conditions noted are these: natural soil in 0.1×R2A, 7 days. Here is the method: as §1, §2
The mark [1] stands for this setting: natural soil in 0.1×R2A, 7 days.

Entries after “also recorded” stand apart in the source; their conditions may differ.

For `C/C1=C2/[N-][C@H]([C@H](CC(N)=O)[C@@]2(C)CCC(=O)NC[C@H](C)OP(=O)([O-])O[C@H]2[C@@H](O)[C@@H](n3cnc4cc(C)c(C)cc43)O[C@@H]2CO)[C@]2(C)N=C(/C(C)=C3N=C(/C=C4N=C1[C@@H](CCC(N)=O)C\4(C)C)[C@@H](CCC(N)=O)[C@]\3(C)CC(N)=O)[C@@H](CCC(N)=O)[C@]2(C)CC(N)=O.[Co+2]` (stereo in doubt) [cobalamin], the “change in relative abundance in the community upon metabolite addition” value in the experiment with 16-member SynCom is recorded as “did not induce any significant change”.
The same measure, in the same setting: with `N[C@@H](CSSC[C@H](N)C(=O)O)C(=O)O` [cystine] the entry was “did not induce any significant change”.
Take `O=C(CO)[C@@H](O)[C@H](O)[C@H](O)CO` [fructose]: the “Burkholderia relative abundance, fold change” value in the experiment on Burkholderia (setting [1]) came to 3.9 fold change. Further, the “Burkholderia's relative abundance” value with Burkholderia is “increase in Burkholderia's relative abundance”. The “relative abundance of Burkholderia's competitors” value in the experiment with Rhizobium and Variovorax (setting [1]) was “decrease of its closest competitors Rhizobium and Variovorax”. Besides, in the experiment with Rhizobium and Variovorax, the “relative abundance of Burkholderia's competitors Rhizobium and Variovorax” value was “decrease of its competitors Rhizobium and Variovorax”.
On to `N[C@@H](CCC(=O)N[C@@H](CS)C(=O)NCC(=O)O)C(=O)O` [glutathione], for which, in the experiment on 16-member SynCom, the “relative abundance of primary targets (high TE for import protein) after metabolite addition” value (from here on “relative abundance of primary targets”) was “specifically increased primary targets Burkholderia and Chitinophaga”; the “relative abundance of secondary targets (guild competitors) after metabolite addition” value (“relative abundance of secondary targets” below) is “decreasing their competitors Mucilaginibacter, and Bradyrhizobium”. For the same compound, in the experiment with Chitinophaga, the “Chitinophaga relative abundance (in words)” value was “did not increase Chitinophaga”. The “Mucilaginibacter relative abundance (in words)” value in the experiment with Mucilaginibacter is given as “did not decrease Mucilaginibacter abundance”.
On to `CSCC[C@H](N)C(=O)O` [methionine], for which the “change in relative abundance in the community upon metabolite addition” value with 16-member SynCom is given as “did not induce any significant change”.
As for `NCCCCN` [putrescine], in the experiment on 16-member SynCom, the “relative abundance of primary targets” value was “specifically increased Paenibacillus and Rhodococcus”; the “relative abundance of secondary targets” value is “reducing competitors Rhizobium, Bradyrhizobium, and Mucilaginibacter”.
`O=C[C@H](O)[C@H](O)[C@H](O)CO` [ribose]: in the experiment with 16-member SynCom, the “relative abundance of primary targets” value was “specific increase of primary targets Paenibacillus and Burkholderia; also recorded: Paenibacillus (increased), Arthobacter and Brevibacillus (not increased)”; the “relative abundance of secondary targets” value was “specific decrease of Burkholderia's competitors Variovorax, Rhizobium, and Bradyrhizobium”. Further, in the experiment with Burkholderia, the “Burkholderia's relative abundance” value was “increase in Burkholderia's relative abundance”. The “Paenibacillus relative abundance, fold change” value in the experiment on Paenibacillus is reported as 3.5 fold change. Further, the “relative abundance of Burkholderia's competitors Rhizobium and Variovorax” value in the experiment on Rhizobium and Variovorax is “decrease of its competitors Rhizobium and Variovorax”.
In the case of `OC[C@H]1O[C@H](O[C@H]2O[C@H](CO)[C@@H](O)[C@H](O)[C@H]2O)[C@H](O)[C@@H](O)[C@@H]1O` [trehalose], the “Paenibacillus relative abundance, fold change” value in the experiment on Paenibacillus was determined as 5.5 fold change.
